In patent publication US11548900B2, “Oxazino-quinazoline and oxazino-quinoline type compound, preparation method and uses thereof” (BEIJING SCITECH-MQ PHARMACEUTICALS LIMITED, priority 2018, dated 2023) one finds IC50 data, which are given here for 18 compounds.

What is called IC50 is the concentration that inhibits the measured activity by half.

In one test the target is HER2 kinase (Homo sapiens (Human), UniProt P04626). In words: Inhibition of HER2 kinase activity (ULight-labeled PolyGT substrate). Format: biochemical. Conditions: HER2 kinase 10 nM, ATP 10 μM, 2 hours. As for the experimental part:
(§1) The assay for the inhibition of EGFR and HER2 kinase activity by small molecular compounds was carried out using the method as follows:
(§2) 1) Dilution of the compounds
(§3) In a 96-well plate a, the compounds were diluted with DMSO using a 3-fold gradient dilution to form 11 concentrations, the 12th concentration is pure DMSO (as a positive control); and in a new 96-well plate b the above solutions were diluted 25 times with ultrapure water (DMSO concentration is 4%).
(§4) 2) Transferring the compounds to 384-well plate
(§5) The compound solutions diluted with ultrapure water in the 96-well plate b above was transferred to the corresponding wells of a 384-well plate in duplicate.
(§6) 3) Addition of 4×kinase solution: 2.5 μl of the above 4× kinase solution was taken using multichannel pipette and added to the corresponding reaction wells of the 384-well plate, mixed well and pre-reacted at room temperature for 5 minutes.
(§7) 4) Addition of 2×substrate/ATP mixed solution: 5 μl of the above 2×substrate/ATP mixed solution was taken using multichannel pipette and added to the corresponding reaction wells of the 384-well plate.
(§8) 5) Negative control: negative control wells were set in the 384-well plate, and 2.5 μl 4×substrate, 2.5 μl 4×enzyme solution, 2.5 μl 1×Kinase Assay Buffer and 2.5 μl ultrapure water containing 4% DMSO were added to each well.
(§9) 6) Mixed by centrifugation and kept at room temperature for 2 hours in the dark.
(§10) 7) Termination of the enzymatic reaction:
(§11) 5 μl of the above 4× stop solution was pipetted to the corresponding wells of the 384-well plate, centrifuged and mixed, and reacted at room temperature for 5 minutes.
(§12) 5 μl of the above 4× detection solution was pipetted into the corresponding wells of the 384-well plate, centrifuged and mixed, and reacted at room temperature for 1 hour.
(§13) 9) The 384-well plate was placed into a microplate reader and the signal was detected using the corresponding program.
(§14) 10) IC50 analysis: Well reading value=10000*EU665 value/EU615 value Inhibition rate=(reading value of positive control well−reading value of experimental well)/(reading value of positive control well−reading value of negative control well)*100% Corresponding IC50s can be calculated by entering the drug concentrations and the corresponding inhibition rates into GraphPad Prism 5.
Conditions of experiment for screening HER2 kinase inhibitory molecules:
The final concentration of HER2 kinase in the reaction system is 10 nM, the final concentration of ATP is 10 μM, the final concentration of substrate ULight™-labeled PolyGT is 100 nM, and the enzymatic reaction time is 2 hours.
(§15) The maximum final concentration of the compound in the reaction system is 2.5 μM, 11 concentrations were made with a 3-fold gradient dilution, and the minimal final concentration is 0.042 nM. The final concentration of DMSO is 1%.

The next test has as its target EGFR kinase (Homo sapiens (Human), UniProt P00533). Briefly: Inhibition of EGFR kinase activity (ULight-labeled JAK-1 (Tyr1023) peptide substrate). In kind it is biochemical. Conditions: EGFR kinase 0.35 nM, ATP 150 μM, 2 hours. As to the method: as §1, §2, §3, §4, §5, §6, §7, §8, §9, §10, §11, §12, §13, §14
Conditions of experiment for screening EGFR kinase inhibitory molecules:
The final concentration of EGFR kinase in the reaction system is 0.35 nM, and the final concentration of ATP is 150 μM, the final concentration of substrate ULight™-labeled JAK-1 (Tyr1023) Peptide is 100 nM, and the enzymatic reaction time is 2 hours.
as §15

The next test relates to BT474 cells. In words: Inhibition of cell proliferation, BT474 (CCK-8, 72 h). Format: cell-based. Particulars: Homo sapiens, BT-474, 72 h incubation. As for the experimental part:
The assay for the inhibition of cell proliferation by small molecular compounds was carried out using the method as follows:
1. 600 μL pancreatin was added to a T75 cell culture flask, which was digested in a 37° C. incubator for about 1 min before 5 mL of DMEM complete culture solution was added, blew evenly, transferred to a 15 mL centrifuge tube, and centrifuged at 1000 rpm for 4 min;
2. The supernatant was removed and 5 mL DMEM complete culture solution was added, blew evenly, and 10 μL cell suspension was taken and mixed with 10 μL 0.4% Trypan Blue, and counted using a cell counter;
3. BT474 and HCC827 cell lines were seeded in 96-well plates at a cell density of 10,000 and 3000 cells/well/80 μL, respectively, and cultured overnight. Only sterile water was added to the 36 wells on the periphery of the 96-well plate without adding cells, and only the 60 wells in the center of the 96-well plate were used for cell assays and controls;
4. Dilution of compounds: the compounds were diluted with a 3-fold dilution to make 10 concentrations in total with an initial concentration of 10 mM;
5. 20 μL of different compounds with different concentrations were added to each well, and 20 μL of complete culture solution was added to the remaining wells. The final concentration of DMSO in each well is 0.25%;
6. After 72 h of incubation, 10 μL CCK-8 reagent was added to each well, and incubated at 37° C. for 1-2 h; and the OD value was read at 450 nm;
7. Cell survival rate (%)=[(As−Ab)/(Ac−Ab)]*100%
As: Assay well (medium containing cell, CCK-8, compound)
Ac: Control well (medium containing cell, CCK-8)
Ab: Blank well (CCK-8, medium without cell and compound)
8. The value was imported into Graphpad Prism5 software for the calculation of IC50s (compound concentration at which 50% maximum survival rate is observed).

Structures are written as SMILES.

HER2 kinase, sequence (P04626 23-1255): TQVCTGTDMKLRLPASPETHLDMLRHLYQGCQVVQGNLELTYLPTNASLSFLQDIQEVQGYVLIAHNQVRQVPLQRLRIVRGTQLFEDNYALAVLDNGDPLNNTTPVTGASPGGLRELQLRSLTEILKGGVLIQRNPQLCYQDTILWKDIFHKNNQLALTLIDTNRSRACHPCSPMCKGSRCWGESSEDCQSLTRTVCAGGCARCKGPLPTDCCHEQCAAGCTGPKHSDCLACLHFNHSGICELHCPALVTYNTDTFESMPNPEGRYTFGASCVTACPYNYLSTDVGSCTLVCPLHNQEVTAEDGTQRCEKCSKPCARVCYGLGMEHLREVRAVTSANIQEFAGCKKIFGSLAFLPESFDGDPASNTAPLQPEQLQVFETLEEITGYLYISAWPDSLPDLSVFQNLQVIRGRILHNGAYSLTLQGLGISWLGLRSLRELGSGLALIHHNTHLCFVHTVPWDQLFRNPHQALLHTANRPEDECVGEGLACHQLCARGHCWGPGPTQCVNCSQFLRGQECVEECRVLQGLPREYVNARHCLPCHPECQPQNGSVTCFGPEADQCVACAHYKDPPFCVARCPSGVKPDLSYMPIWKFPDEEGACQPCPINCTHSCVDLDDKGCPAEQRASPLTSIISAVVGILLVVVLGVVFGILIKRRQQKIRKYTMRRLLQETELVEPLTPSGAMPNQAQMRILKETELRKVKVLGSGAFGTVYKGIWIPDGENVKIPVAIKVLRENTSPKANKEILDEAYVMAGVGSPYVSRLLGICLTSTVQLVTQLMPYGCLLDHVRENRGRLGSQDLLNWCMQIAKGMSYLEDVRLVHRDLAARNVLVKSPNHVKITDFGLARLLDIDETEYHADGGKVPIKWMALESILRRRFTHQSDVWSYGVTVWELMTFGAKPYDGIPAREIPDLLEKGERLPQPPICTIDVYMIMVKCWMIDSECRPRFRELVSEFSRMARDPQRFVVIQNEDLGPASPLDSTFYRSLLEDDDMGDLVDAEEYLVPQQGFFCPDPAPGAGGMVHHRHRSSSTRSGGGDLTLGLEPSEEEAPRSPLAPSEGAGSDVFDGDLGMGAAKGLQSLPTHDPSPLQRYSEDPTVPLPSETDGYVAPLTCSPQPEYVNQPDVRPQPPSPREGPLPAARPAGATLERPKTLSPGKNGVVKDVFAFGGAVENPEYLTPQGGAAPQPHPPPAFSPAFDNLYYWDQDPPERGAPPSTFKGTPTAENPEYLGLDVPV
EGFR kinase, sequence (P00533 25-1210): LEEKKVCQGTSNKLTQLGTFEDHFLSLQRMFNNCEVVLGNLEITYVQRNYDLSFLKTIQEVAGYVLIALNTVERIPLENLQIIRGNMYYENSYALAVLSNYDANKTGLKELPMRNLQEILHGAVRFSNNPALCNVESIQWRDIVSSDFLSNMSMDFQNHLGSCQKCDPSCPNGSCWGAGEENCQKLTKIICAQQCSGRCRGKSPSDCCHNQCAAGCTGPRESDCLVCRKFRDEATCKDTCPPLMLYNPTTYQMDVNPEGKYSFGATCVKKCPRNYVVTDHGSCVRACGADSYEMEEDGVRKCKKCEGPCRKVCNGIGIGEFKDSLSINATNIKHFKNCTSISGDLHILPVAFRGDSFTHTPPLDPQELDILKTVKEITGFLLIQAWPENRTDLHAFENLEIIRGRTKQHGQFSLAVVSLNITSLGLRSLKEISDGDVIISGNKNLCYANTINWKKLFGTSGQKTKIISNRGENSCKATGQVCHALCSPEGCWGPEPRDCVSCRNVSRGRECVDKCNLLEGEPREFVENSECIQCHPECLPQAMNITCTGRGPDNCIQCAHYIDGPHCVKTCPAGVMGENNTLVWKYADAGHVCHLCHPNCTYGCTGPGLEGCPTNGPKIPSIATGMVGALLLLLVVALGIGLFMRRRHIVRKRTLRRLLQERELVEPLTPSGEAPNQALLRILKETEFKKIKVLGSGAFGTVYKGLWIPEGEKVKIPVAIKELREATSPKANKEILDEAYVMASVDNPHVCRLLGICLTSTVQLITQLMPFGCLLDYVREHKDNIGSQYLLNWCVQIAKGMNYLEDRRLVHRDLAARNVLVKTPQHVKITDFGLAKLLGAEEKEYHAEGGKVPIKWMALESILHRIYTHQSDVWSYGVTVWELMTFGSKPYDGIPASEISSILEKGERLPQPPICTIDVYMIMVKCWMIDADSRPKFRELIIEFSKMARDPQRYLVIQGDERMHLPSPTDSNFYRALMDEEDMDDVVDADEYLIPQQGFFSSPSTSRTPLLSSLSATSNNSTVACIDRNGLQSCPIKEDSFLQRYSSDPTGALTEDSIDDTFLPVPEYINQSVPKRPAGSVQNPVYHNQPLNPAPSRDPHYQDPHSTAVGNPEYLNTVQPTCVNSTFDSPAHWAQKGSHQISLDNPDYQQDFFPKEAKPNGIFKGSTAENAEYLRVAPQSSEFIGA

In the case of `C=CC(=O)N1CCOc2c1ccc1ncnc(Nc3ccc(OCc4ccccn4)c(Cl)c3)c21` [Example 4, 1-(10-((3-chloro-4-(pyridin-2-ylmethoxy)phenyl)amino)-2,3-dihydro-4H-[1,4]oxazino[2,3-f]quinazolin-4-yl)prop-2-en-1-one], the IC50 on HER2 kinase and on EGFR kinase was at most 50 nM each time.
Regarding `C=CC(=O)N1CCOc2c1ccc1ncnc(Oc3ccc(Oc4ccccc4)cc3)c21` [Example 33, 1-(10-(4-phenoxyphenoxy)-2,3-dihydro-4H-[1,4]oxazino[2,3-f]quinazolin-4-yl)prop-2-en-1-one], the 50% inhibitory concentration (IC50) on HER2 kinase and against EGFR kinase was at most 50 nM throughout.
For the compound `C=CC(=O)N1CCOc2c1ccc1ncnc(Oc3ccc(OCc4ccccn4)c(Cl)c3)c21` [Example 34, 1-(10-(3-chloro-4-(pyridin-2-ylmethoxy)phenoxy)-2,3-dihydro-4H-[1,4]oxazino[2,3-f]quinazolin-4-yl)prop-2-en-1-one], the concentration for half-maximal inhibition (IC50) against HER2 kinase and at EGFR kinase was at most 50 nM throughout.
In the case of `C=CC(=O)N1CCOc2c1ccc1ncnc(Oc3ccc(OCc4cccc(F)c4)c(Cl)c3)c21` [Example 35, 1-(10-(3-chloro-4-((3-fluorobenzyl)oxy)phenoxy)-2,3-dihydro-4H-[1,4]oxazino[2,3-f]quinazolin-4-yl)prop-2-en-1-one], the IC50 on HER2 kinase and against EGFR kinase was at most 50 nM in each case.
Turning to `C=CC(=O)N1CCOc2c1ccc1ncnc(Oc3ccc(Oc4ccc(F)cc4)cc3)c21` [Example 37, 1-(10-(4-(4-fluorophenoxy)phenoxy)-2,3-dihydro-4H-[1,4]oxazino[2,3-f]quinazolin-4-yl)prop-2-en-1-one], the IC50 at HER2 kinase and against EGFR kinase was at most 50 nM in each case.
For the compound `C=CC(=O)N1CCOc2c1ccc1ncnc(Oc3ccc(OCc4ccccn4)cc3)c21` [Example 39, 1-(10-(4-(pyridin-2-ylmethoxy)phenoxy)-2,3-dihydro-4H-[1,4]oxazino[2,3-f]quinazolin-4-yl)prop-2-en-1-one], the IC50 on HER2 kinase and at EGFR kinase was at most 50 nM throughout.
In the case of `C=CC(=O)N1CCOc2c1ccc1ncnc(Oc3ccc(OCc4ccccc4F)cc3)c21` [Example 40, 1-(10-(4-((2-fluorobenzyl)oxy)phenoxy)-2,3-dihydro-4H-[1,4]oxazino[2,3-f]quinazolin-4-yl)prop-2-en-1-one], the half-inhibitory concentration (IC50) at HER2 kinase and against EGFR kinase was at most 50 nM each time.
For the compound `C=CC(=O)N1CCOc2c1ccc1ncnc(Oc3ccc(OCc4cccc(F)c4)cc3)c21` [Example 41, 1-(10-(4-((3-fluorobenzyl)oxy)phenoxy)-2,3-dihydro-4H-[1,4]oxazino[2,3-f]quinazolin-4-yl)prop-2-en-1-one], the IC50 on HER2 kinase and on EGFR kinase was at most 50 nM throughout.
As for `C=CC(=O)N1CCOc2c1ccc1ncnc(Oc3ccc(OCc4ccc(F)cc4)cc3)c21` [Example 42, 1-(10-(4-((4-fluorobenzyl)oxy)phenoxy)-2,3-dihydro-4H-[1,4]oxazino[2,3-f]quinazolin-4-yl)prop-2-en-1-one], the IC50 against HER2 kinase and on EGFR kinase was at most 50 nM each time.
Take `CN(C)C/C=C/C(=O)N1CCOc2c1ccc1ncnc(Nc3ccc(Oc4cccc(C(F)(F)F)c4)cc3)c21` [Example 43, (E)-4-(dimethylamino)-1-(10-((4-(3-(trifluoromethyl)phenoxy)phenyl)amino)-2,3-dihydro-4H-[1,4]oxazino[2,3-f]quinazolin-4-yl)but-2-en-1-one]: the IC50 against HER2 kinase and against EGFR kinase was at most 50 nM each time.
Turning to `CN(C)C/C=C/C(=O)N1CCOc2c1ccc1ncnc(Nc3ccc(OCc4cccc(F)c4)c(Cl)c3)c21` [Example 45, (E)-1-(10-((3-chloro-4-((3-fluorobenzyl)oxy)phenyl)amino)-2,3-dihydro-4H-[1,4]oxazino[2,3-f]quinazolin-4-yl)-4-(dimethylamino)but-2-en-1-one], the half-inhibitory concentration (IC50) against HER2 kinase and against EGFR kinase was at most 50 nM throughout.
Take `CN(C)C/C=C/C(=O)N1CCOc2c1ccc1ncnc(Nc3ccc(Oc4ccc(Cl)cc4)cc3)c21` [Example 52, (E)-4-(dimethylamino)-1-(10-((4-(4-chlorophenoxy)phenyl)amino)-2,3-dihydro-4H-[1,4]oxazino[2,3-f]quinazolin-4-yl)but-2-en-1-one]: the concentration for half-maximal inhibition (IC50) against HER2 kinase and against EGFR kinase was at most 50 nM each time.
On to `CN(C)C/C=C/C(=O)N1CCOc2c1ccc1ncnc(Nc3ccc(OCc4cccc(F)c4)c(C(F)(F)F)c3)c21` [Example 67], for which the half-maximal inhibitory concentration (IC50) against HER2 kinase and on EGFR kinase was at most 50 nM in each case.
Turning to `CN(C)C/C=C/C(=O)N1CCOc2c1ccc1ncnc(Nc3ccc(Sc4ccc(F)cc4)cc3)c21` [Example 70, (E)-4-(dimethylamino)-1-(10-((4-((4-fluorophenyl)thio)phenyl)amino)-2,3-dihydro-4H-[1,4]oxazino[2,3-f]quinazolin-4-yl)but-2-en-1-one], the IC50 against HER2 kinase, at EGFR kinase and in the test with BT474 cells was at most 50 nM in each case.
For the compound `CC(Oc1ccc(Nc2ncnc3ccc4c(c23)OCCN4C(=O)/C=C/CN(C)C)cc1)c1ccccn1` (centres unmarked) [Example 75, (E)-4-(dimethylamino)-1-(10-((4-(1-(pyridin-2-yl)ethoxy)phenyl)amino)-2,3-dihydro-4H-[1,4]oxazino[2,3-f]quinazolin-4-yl)but-2-en-1-one], the IC50 was at most 50 nM against HER2 kinase and 50 to 500 nM against EGFR kinase.
Taken in the same sequence, the figures for `CN(C)C/C=C/C(=O)N1CCOc2c1ccc1ncnc(Nc3ccc(OCc4ccncc4)cc3)c21` [Example 77, (E)-4-(dimethylamino)-1-(10-((4-(pyridin-4-ylmethoxy)phenyl)amino)-2,3-dihydro-4H-[1,4]oxazino[2,3-f]quinazolin-4-yl)but-2-en-1-one] were at most 50 nM and 500 to 5000 nM.
Regarding `COCCCCNC/C=C/C(=O)N1CCOc2c1ccc1ncnc(Nc3ccc(Oc4ccccc4F)cc3)c21` [Example 99, (E)-1-(10-((4-(2-fluorophenoxy)phenyl)amino)-2,3-dihydro-4H-[1,4]oxazino[2,3-f]quinazolin-4-yl)-4-((4-methoxybutyl)amino)but-2-en-1-one], the results for the 50% inhibitory concentration (IC50) on HER2 kinase and at EGFR kinase were at most 50 nM and 50 to 500 nM, respectively.
On to `Cc1cc(Nc2ncnc3ccc4c(c23)OCCN4C(=O)/C=C/CN(C)C)ccc1Oc1ccn2ncnc2c1` [Example 124, (E)-1-(10-((4-([1,2,4]triazolo[1,5-a]pyridin-7-yloxy)-3-methylphenyl)amino)-2,3-dihydro-4H-[1,4]oxazino[2,3-f]quinazolin-4-yl)-4-(dimethylamino)but-2-en-1-one], for which the IC50 is at most 50 nM against HER2 kinase, 50 to 500 nM against EGFR kinase and at most 50 nM with BT474 cells.
